This data set in a line: Human HepG2 cell viability assay in 384 well format. Type of data set: toxicity, cell-based. On the set-up: dose 125 nL, time 70.5 hour; concentration not given beside the values. The note with it: HepG2 cells, read-out: Inhibition.
`NC(=O)CNC1(c2ccc(Br)cc2)CCOCC1`: the cytotoxicity at 70.5 h turned out to be 22.4%. Regarding `COC1CCN(CC(=O)NCc2ccc(OCC(N)=O)cc2)CC1`, the cytotoxicity at 70.5 h was found to be 0.0627%. Take `Cc1nn(C)c(N2CCCN(C)CC2)c1CNC(=O)CC(C)(C)C`: the cytotoxicity at 70.5 h was determined as 3.8%. Consider `CCC(CC)C(=O)NCc1c(C)nn(C)c1N1CCCN(C)CC1`, for which the cytotoxicity at 70.5 h is 22.5%. With `Cc1nn(C)c(N2CCCN(C)CC2)c1CNC(=O)CC1CCCC1`, the cytotoxicity at 70.5 h is 0.191%. Turning to `COC(=O)C1CCCN1CC(=O)NCc1ccc(OCC(N)=O)cc1` (configuration not stated), the cytotoxicity at 70.5 h was determined as 4.54%.

With `O=C(CNC1(c2ccc(Cl)cc2)CCOCC1)NC1CCCC1`, the cytotoxicity at 70.5 h is 1.78%. The figure for `O=C1CN(c2ccc(CNC(=O)Nc3nccs3)cc2)CCN1` is 1.2%; for `Cc1nc(N2CCN(C(=O)CC3CCCC3)CC2)c2cnn(C)c2n1` it is 0.786%; for `CC(Nc1cccc2c1OCCO2)C(=O)Nc1ccc(Cl)cc1` (configuration not stated) it is 2.81%. The figure for `Cc1nn(C)c(Cl)c1C1CCCN1CC(=O)NC1CCCC1` (configuration not stated) is 2.37%; for `CCNC(=O)NCC1(CN2CCOCC2)CCCCC1` it is 0.842%.

On to `COC(=O)N1CCC(Nc2ccc(Cl)c(C#N)n2)C1` (configuration not stated), for which the cytotoxicity at 70.5 h is -2.14%. Turning to `Cc1nn(C)cc1C(=O)NCc1cc(N(C)C)nc2ccccc12`, the cytotoxicity at 70.5 h was -0.83%.

Take `O=C(COC1CCCC1)NCCc1noc(-c2ccccn2)n1`: the cytotoxicity at 70.5 h is -5.96%. The figure for `CCN(C)C(=O)NCC1(CN2CCOCC2)CCCCC1` is -4.49%.

Take `CCOCCC1(CNC(=O)c2ccsc2)CCC1`: the cytotoxicity at 70.5 h was -5.98%.

As to `Cc1nn(C)c(Cl)c1C1CCCN1CC(=O)N1CCOCC1` (configuration not stated), the cytotoxicity at 70.5 h was 1.93%. The figure for `CC1CCC(NC(=O)CNC2(c3ccc(F)cc3)CCOCC2)CC1` (configuration not stated) is -3.54%. The figure for `Cc1nn(C)c(C)c1CC(=O)N1CCCC(CNS(C)(=O)=O)C1` (configuration not stated) is -0.898%; for `CC(Cn1cccn1)C(=O)N1CCCN(Cc2cscn2)CC1` (configuration not stated) it is -0.68%; for `O=C(c1ccoc1)N(Cc1ccccn1)C1CC1` it is -14.2%. The figure for `COC(=O)c1cc(OC)ccc1NCC(=O)NCC(=O)N1CCCC1` is -17.6%; for `NC(=O)C1CCN(CCc2ccc(NCc3cscn3)cc2)CC1` it is -12.5%; for `Cc1cc(CCCC(=O)NC2CCN(C)C2=O)c(C)s1` (configuration not stated) it is -9.64%. Turning to `CN(C)C(=O)C1CCCN1c1ccnc2ccsc12` (configuration not stated), the cytotoxicity at 70.5 h is -7.45%.

Turning to `CC(NCCN1CCN(C(=O)C2CCCC2)CC1)c1ccccn1` (configuration not stated), the cytotoxicity at 70.5 h is -2.99%. The figure for `NCc1csc(CCc2ccccc2)n1` is -8.04%. In the case of `CC(c1cccc(O)c1)N(C)S(=O)(=O)c1cccnc1` (configuration not stated) it was 4.03%. The figure for `CN(C)C(=O)c1cc(S(=O)(=O)N2CCCC2Cn2ccnc2)cn1C` (configuration not stated) is 2.99%; for `Cc1ccc(C(N)c2cccs2)cc1` (configuration not stated) it is 31.8%. As to `COC(=O)c1ccc(CNC(=O)Nc2ccc(=O)n(C)c2)cc1`, the cytotoxicity at 70.5 h is -2.19%. Regarding `CN(Cc1ccsc1)C(=O)Nc1ccc(=O)n(C)c1`, the cytotoxicity at 70.5 h is -6.48%. In the case of `Cc1nn(C(C)C)c(C)c1S(=O)(=O)Nc1cccc(C(=O)O)c1` it was -5.93%. In the case of `Cc1nn(C(C)C)c(C)c1S(=O)(=O)Nc1cccc(F)c1` it was -0.473%; in that of `O=C(NS(=O)(=O)c1ccc2c(c1)CCC2)C1COCCO1` (configuration not stated), 26.8%; in that of `CSc1ccsc1C(=O)NC(C)c1ccc2c(c1)CCC(=O)N2` (configuration not stated), 11.2%. In the case of `CCCNC(=O)c1cc(Br)cc(S(=O)(=O)N2CCOCC2)c1F` it was -0.419%; in that of `Cn1cc(NC(=O)c2cccc(Cl)c2)c(=O)n(C)c1=O`, 24%; in that of `Cc1nn(C(C)C)c(C)c1S(=O)(=O)Nc1ccc(C(=O)O)cc1`, -1.04%. As for `O=S(=O)(NCC1COCCO1)c1ccc(C2CCCCC2)cc1` (configuration not stated), the cytotoxicity at 70.5 h is -4.34%.

With `CCn1cc(S(=O)(=O)NC(CO)Cc2ccccc2)cn1` (configuration not stated), the cytotoxicity at 70.5 h was -7.27%.

Regarding `O=S1(=O)CCC(n2cc(CNc3ccccc3Br)cn2)C1` (configuration not stated), the cytotoxicity at 70.5 h was 31.4%. The figure for `Cc1cc2cc(CNC3CCN(CC(=O)N(C)C)CC3)oc2cc1C` is -3.5%; for `OC(COCc1ccccc1)CSc1nnc(C2CC2)n1C1CC1` (configuration not stated) it is 0.33%. Take `CC(C)c1ccc(C(N)c2cccs2)cc1` (configuration not stated): the cytotoxicity at 70.5 h was -5.3%. As to `Cc1cc(F)ccc1-n1cc(O)c(C(=O)NCC[S+](C)[O-])n1` (configuration not stated), the cytotoxicity at 70.5 h turned out to be 8.16%.

Take `CC(C)(C)n1nc(C2CC2)cc1C(=O)NC1CCN(CC(N)=O)CC1`: the cytotoxicity at 70.5 h was -12.3%. The figure for `Cc1cc(C(=O)NC2CCN(CC(N)=O)CC2)nn1C(C)(C)C` is -18.9%; for `CC(C)c1cc(C(=O)NC2CCN(CC(N)=O)CC2)nn1C(C)(C)C` it is -10.3%. The figure for `CC(CC(=O)NCCNS(C)(=O)=O)C1CCCCC1` (configuration not stated) is -13.2%; for `Cc1ccc(C(=O)N2CCCN(C)c3ccc(F)cc32)o1` it is -17.9%. The figure for `Cc1cc(NC(=O)C2CCCN(C(=O)NCC(C)C)C2)ccn1` (configuration not stated) is -14.5%; for `Cc1cc(F)ccc1-n1cc(O)c(C(N)=O)n1` it is -19%; for `CCNC(=O)CNC(=O)Nc1c(F)cc(F)cc1-c1ccccc1` it is -9.19%.

Take `CSCC(C)N(C)C(=O)c1nn(-c2ccc(F)cc2C)cc1O` (configuration not stated): the cytotoxicity at 70.5 h is -10.1%.

For the compound `Cc1ccc(C)c(OC2CCN(C(=O)CNc3ccccc3Cl)CC2)c1`, the cytotoxicity at 70.5 h stood at 24.6%.

Consider `CNC(=O)C1CCC(NC(=O)c2cc(C3CC3)n(C(C)(C)C)n2)CC1` (configuration not stated), for which the cytotoxicity at 70.5 h is -6.36%. The figure for `CN1CCN(C(=O)c2cnsn2)c2ccc(F)cc21` is -10.4%; for `Cn1cc(C(O)CNC(=O)c2cc(Br)ccc2Cl)cn1` (configuration not stated) it is -14.2%; for `c1cnc2nc(N3CCCC3c3nnc4n3CCCCC4)ccc2n1` (configuration not stated) it is -4.33%.

Take `CC(Nc1cccc(COCc2ccco2)c1)C(=O)NC(N)=O` (configuration not stated): the cytotoxicity at 70.5 h is -23%. Consider `COc1ccc(Cn2ccnc2)cc1F`, for which the cytotoxicity at 70.5 h was -10.7%.

Consider `CCC(=O)N(CCN(C)C)Cc1ccc(F)c(F)c1`, for which the cytotoxicity at 70.5 h is -13.7%. The figure for `Cc1nc2ccccc2nc1NCc1cccc(OCC2CCCO2)c1` (configuration not stated) is 0.538%; for `CN(C)C(=O)Cn1cc(C(=O)N2CCCc3cccc(F)c32)nn1` it is -17.3%; for `COc1ccccc1C1(CNc2ccnc(C(=O)N(C)C)c2)CC1` it is 33.4%. In the case of `COc1ncnc(N)c1CNCC(C)SC` (configuration not stated) it was 34.8%; in that of `COc1ccccc1C1(CNc2cc(C(=O)N(C)C)ccn2)CC1`, 0.399%; in that of `CCCc1cc(N2CCCC2Cn2cc(C)cn2)n2ncnc2n1` (configuration not stated), -8.77%.

Turning to `COCc1nc(CNC2CCCc3c2cnn3C(C)(C)C)cs1` (configuration not stated), the cytotoxicity at 70.5 h is -6.43%. Regarding `CC1CCN(C)c2ccccc2N1C(=O)c1ccc(=O)n(C)n1` (configuration not stated), the cytotoxicity at 70.5 h was -5.36%. In the case of `COC(=O)c1ccc(N2CCC(C(O)c3ccccc3)CC2)nn1` (configuration not stated) it was -4.29%. In the case of `O=S(=O)(c1ccc2c(c1)OCCO2)N1CCC(OCc2ccccn2)C1` (configuration not stated) it was -8.08%. In the case of `O=S(=O)(c1ccc(C(F)(F)F)cc1)N1CCC(OCc2ccccn2)C1` (configuration not stated) it was 1.24%; in that of `CC1CCN(C)c2ccccc2N1C(=O)c1ccc(=O)n(C)c1` (configuration not stated), -6.14%.

In the case of `CCC(C)(COc1ncccc1Cl)NCC(=O)NC1CCCCC1` (configuration not stated), the cytotoxicity at 70.5 h was -14.9%. The figure for `CCC1C(=O)NCCN1c1ccnc(C(C)(C)C)n1` (configuration not stated) is -23.9%; for `CCC1C(=O)NCCN1c1cc(C)ncn1` (configuration not stated) it is -22.8%; for `CN(CCc1ccccn1)C(=O)C(O)c1ccc(Br)cc1` (configuration not stated) it is -4.38%.

Turning to `Cc1nc(NC(=O)NC(CS(C)(=O)=O)c2ccccc2)sc1C` (configuration not stated), the cytotoxicity at 70.5 h is -11.5%.

`CC(C)c1nsc(N2CCCOCC2)n1`: the cytotoxicity at 70.5 h amounted to 37.7%.

Consider `O=C(CN(CC(O)c1ccc(F)cc1)C1CC1)Nc1cccnc1` (configuration not stated), for which the cytotoxicity at 70.5 h is -24.7%. The figure for `CCNc1nc(C)c(C(=O)N(C)Cc2nc(CC)no2)s1` is -34.8%; for `CC(C)n1cnnc1C1CCCN(S(=O)(=O)CCCC#N)C1` (configuration not stated) it is -35.2%; for `COc1cccc(CN(C)C(=O)c2ccc(NC(C)=O)s2)c1OC` it is -62.7%. In the case of `CC(=O)Nc1ccc(C(=O)N(C)Cc2ccc(F)cc2F)s1` it was -61.6%; in that of `COCC(O)CN(C)C(=O)NCc1ccc(S(C)(=O)=O)cc1` (configuration not stated), -106%. The figure for `CCS(=O)(=O)NC(CCSC)C(=O)Nc1ccc(C)cc1C` (configuration not stated) is -88.5%; for `CC(C)(C)C(NCC(=O)N1CCNC(=O)C1)c1ccccc1` (configuration not stated) it is -107%; for `CCS(=O)(=O)NC(CCSC)C(=O)Nc1cccc(C)c1C` (configuration not stated) it is -83.4%. As for `CNS(=O)(=O)c1ccc(CNC(=O)N(C)CC(C)C)cc1`, the cytotoxicity at 70.5 h was -94.7%. Turning to `Cc1cc(N2CCc3c(ncn3C)C2)n2nc(C(F)(F)F)nc2n1`, the cytotoxicity at 70.5 h is -105%.

For `Cc1noc(CS(=O)(=O)C(C)C(=O)N(C)c2ccccc2)n1` (configuration not stated), the cytotoxicity at 70.5 h was -23.3%.

As for `CS(=O)(=O)CCCN(CCCO)C1CCc2ccccc21` (configuration not stated), the cytotoxicity at 70.5 h is -107%. The figure for `Cn1ncnc1CNc1ccccc1C(=O)NC(C)(C)C` is -100%. In the case of `CS(=O)(=O)Cc1noc(CN2CCc3c(Cl)cccc3C2)n1` it was -79.4%; in that of `CNC(=O)c1ccc(OC)c(NCc2ncc(-c3cccs3)o2)c1`, -92.5%; in that of `CCc1nn(C)c2[nH]nc(NC(=O)c3cccnc3OCC(C)C)c12`, -90.4%. The figure for `Cc1ccc(NC(=O)c2ncc(C(N)=O)cc2Cl)cc1F` is -87.6%; for `CC(C)c1ccc(NC(=O)c2ncc(C(N)=O)cc2Cl)cc1` it is -86.1%. Regarding `CCOC(=O)c1cnn(C2CCN(C(=O)CC3CCCC3)CC2)c1N`, the cytotoxicity at 70.5 h is -2.45%.
